System: 677734-321-R-J1-PDC complex spheroid viability
Assay: Anticancer human tumor 677734-321-R-J1-PDC patient-derived soft tissue sarcoma cell line growth inhibition [POLQ]
Details: for IC50: curve of first compound; for viability, T/C: stronger effect = lower value
In short: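 Complex spheroid viability model combining PDC tumour cells with endothelial (HUVEC) and MSC stromal cells. Novobiocin, ART-558 or RP6685 were tested singly and in combination with standard and investigational anticancer drugs. Each was titrated in half-log steps from near clinical Cmax, or from 10 microM where Cmax was unknown.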

[1] = second compound 0.0316 µM, first compound 0.0316 µM
[2] = second compound 0.0316 µM, first compound 0.1 µM
[3] = second compound 0.0316 µM, first compound 0.316 µM
[4] = second compound 0.0316 µM, first compound 1 µM
[5] = second compound 0.1 µM, first compound 0.0316 µM
[6] = second compound 0.1 µM, first compound 0.1 µM
[7] = second compound 0.1 µM, first compound 0.316 µM
[8] = second compound 0.1 µM, first compound 1 µM
[9] = second compound 0.316 µM, first compound 0.0316 µM
[10] = second compound 0.316 µM, first compound 0.1 µM
[11] = second compound 0.316 µM, first compound 0.316 µM
[12] = second compound 0.316 µM, first compound 1 µM
[13] = second compound 1 µM, first compound 0.0316 µM
[14] = second compound 1 µM, first compound 0.1 µM
[15] = second compound 1 µM, first compound 0.316 µM
[16] = second compound 1 µM, first compound 1 µM
[17] = second compound 3.16 µM, first compound 0.0316 µM
[18] = second compound 3.16 µM, first compound 0.1 µM
[19] = second compound 3.16 µM, first compound 0.316 µM
[20] = second compound 3.16 µM, first compound 1 µM
[21] = second compound 10 µM, first compound 0.0316 µM
[22] = second compound 10 µM, first compound 0.1 µM
[23] = second compound 10 µM, first compound 0.316 µM
[24] = second compound 10 µM, first compound 1 µM
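Further: spheroids exposed to compounds for one week.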
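Wherever viability, T/C is given: 100% = vehicle DMSO treated spheroids.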

Structure (SMILES): CCc1c2c(nc3ccc(O)cc13)-c1cc3c(c(=O)n1C2)COC(=O)[C@]3(O)CC + COC1C(OC(N)=O)C(O)C(Oc2ccc3c(O)c(NC(=O)c4ccc(O)c(CC=C(C)C)c4)c(=O)oc3c2C)OC1(C)C
- IC50 (second compound 0.0316 µM): < 3.16 nM
- IC50 (second compound 0.1 µM): < 3.16 nM
- IC50 (second compound 0.316 µM): < 3.16 nM
- IC50 (second compound 1 µM): < 3.16 nM
- IC50 (second compound 3.16 µM): < 3.16 nM
- IC50 (second compound 10 µM): < 3.16 nM
- viability, T/C (second compound 0.0316 µM, first compound 0.00316 µM): 28.4%
- viability, T/C (second compound 0.0316 µM, first compound 0.01 µM): 11.8%
- viability, T/C [1]: 4.37%
- viability, T/C [2]: 3.1%
- viability, T/C [3]: 2.06%
- viability, T/C [4]: 1.39%
- viability, T/C (second compound 0.1 µM, first compound 0.00316 µM): 30%
- viability, T/C (second compound 0.1 µM, first compound 0.01 µM): 13.9%
- viability, T/C [5]: 5.1%
- viability, T/C [6]: 2.75%
- viability, T/C [7]: 2%
- viability, T/C [8]: 1.2%
- viability, T/C (second compound 0.316 µM, first compound 0.00316 µM): 28.4%
- viability, T/C (second compound 0.316 µM, first compound 0.01 µM): 12%
- viability, T/C [9]: 4.66%
- viability, T/C [10]: 2.52%
- viability, T/C [11]: 6.96%
- viability, T/C [12]: 2.86%
- viability, T/C (second compound 1 µM, first compound 0.00316 µM): 30.1%
- viability, T/C (second compound 1 µM, first compound 0.01 µM): 13.1%
- viability, T/C [13]: 4.67%
- viability, T/C [14]: 2.88%
- viability, T/C [15]: 2.98%
- viability, T/C [16]: 1.68%
- viability, T/C (second compound 3.16 µM, first compound 0.00316 µM): 24.4%
- viability, T/C (second compound 3.16 µM, first compound 0.01 µM): 14.4%
- viability, T/C [17]: 6.11%
- viability, T/C [18]: 3.15%
- viability, T/C [19]: 2.62%
- viability, T/C [20]: 1.16%
- viability, T/C (second compound 10 µM, first compound 0.00316 µM): 32%
- viability, T/C (second compound 10 µM, first compound 0.01 µM): 12.5%
- viability, T/C [21]: 4.86%
- viability, T/C [22]: 3.88%
- viability, T/C [23]: 2.05%
- viability, T/C [24]: 1.75%

Structure (SMILES): Nc1ccn(C2OC(CO)C(O)C2(F)F)c(=O)n1 (centres undefined) + Nc1ccc(C#CCN(C(=O)Cc2ncc(C(F)(F)F)cc2C(F)(F)F)c2ccc(F)cc2)nn1
- IC50 (second compound 0.0316 µM): < 31.6 nM
- IC50 (second compound 0.1 µM): < 31.6 nM
- IC50 (second compound 0.316 µM): < 31.6 nM
- IC50 (second compound 1 µM): < 31.6 nM
- IC50 (second compound 3.16 µM): < 31.6 nM
- IC50 (second compound 10 µM): 68.3 nM
- viability, T/C [1]: 15.4%
- viability, T/C [2]: 11.3%
- viability, T/C [3]: 11.7%
- viability, T/C [4]: 10.9%
- viability, T/C (second compound 0.0316 µM, first compound 3.16 µM): 10.4%
- viability, T/C (second compound 0.0316 µM, first compound 10 µM): 5.84%
- viability, T/C [5]: 17.8%
- viability, T/C [6]: 13%
- viability, T/C [7]: 11.4%
- viability, T/C [8]: 11.2%
- viability, T/C (second compound 0.1 µM, first compound 3.16 µM): 8.25%
- viability, T/C (second compound 0.1 µM, first compound 10 µM): 6.36%
- viability, T/C [9]: 18.4%
- viability, T/C [10]: 11.9%
- viability, T/C [11]: 13%
- viability, T/C [12]: 12.1%
- viability, T/C (second compound 0.316 µM, first compound 3.16 µM): 11.4%
- viability, T/C (second compound 0.316 µM, first compound 10 µM): 6.35%
- viability, T/C [13]: 28.2%
- viability, T/C [14]: 11.8%
- viability, T/C [15]: 12.3%
- viability, T/C [16]: 13.7%
- viability, T/C (second compound 1 µM, first compound 3.16 µM): 10.3%
- viability, T/C (second compound 1 µM, first compound 10 µM): 6.64%
- viability, T/C [17]: 46.4%
- viability, T/C [18]: 15.8%
- viability, T/C [19]: 13.1%
- viability, T/C [20]: 13.7%
- viability, T/C (second compound 3.16 µM, first compound 3.16 µM): 9.36%
- viability, T/C (second compound 3.16 µM, first compound 10 µM): 7.65%
- viability, T/C [21]: 87.1%
- viability, T/C [22]: 31.4%
- viability, T/C [23]: 14.1%
- viability, T/C [24]: 14.3%
- viability, T/C (second compound 10 µM, first compound 3.16 µM): 10.6%
- viability, T/C (second compound 10 µM, first compound 10 µM): 9.19%

Reference: PubChem BioAssay AID1963842 (Molecular Pharmacology Branch, DTP, NCI, 2024)
